Measurements from patent US20100297020A1, “PHOSPHORYLATED AND PHOSPHONATED PYRONE ANALOGS FOR THERAPEUTIC TREATMENT” (Limerick Biopharma, Inc., priority 2008, published 2010).

Tests used:
[1] = test system: BB19 cells, human BCECs (brain capillary endothelial cells); experiment: Tacrolimus uptake assay; assay type: cell-based; conditions: Endothelial cell, 1 h, 0.1 μM test compound, 1 hour incubation, 3H-tacrolimus 34 nM, read-out: cell associated ^3H-tacrolimus uptake, % of control
Protocol: (§1) BB19 cells, human BCECs (brain capillary endothelial cells) immortalized with the E6E7 genes of human papilloma virus, were kindly provided from Jacques G. Prudhomme, Department of Biology, University of California, Riverside, U.S.A. The cells were cultured as monolayer culture in Amniomax™-C100 basal medium (catalog number 17001-157) with Amniomax™-C100 supplement (catalog number 12556-049) (Invitrogen, Basel, CH).
(§2) Cells were seeded onto culture surfaces precoated with 10 μg/cm^2 rat tail collagen type I (BD Bioscience, Allschwil, CH) at a density of approximately 50′000 cells/cm^2 and were cultured in an incubator at 37° C. with 5% CO2, 95% fresh air and saturated humidity. For uptake assays, cells were seeded on precoated 96-well plates. Assays were performed at confluency, after 6 days in culture.
(§3) BB19 cells were seeded 50′000 cells/cm^2 on 96-well plates (Falcon) and incubated under condition described above for 6 days. Before starting the assay, cells were washed 2 times with pre-warmed Dulbecco's MEM with Glutamax-I (catalog number 61965) (Invitrogen AG, Basel, CH), supplemented with 1% non essential amino acids, 1% sodium pyruvate, 50 μg/ml gentamycin (Invitrogen AG) (DMEM). Cells were then incubated for 15 min at 37° C. and 120 rpm in DMEM with or without the specified concentrations of test compounds under investigation. After this pre-incubation, cells were incubated in DMEM containing [propyl-3H]-dihydro-FK506 (3H-tacrolimus, 1 μCi/ml, 34 nM) and with or without the specified concentrations of test compounds for 1 hour at 37° C. and 120 rpm. During this 1-hour incubation period, influx and efflux of the substrate, ^3H-tacrolimus, occur. After the 1-hour incubation period, assay was terminated by placing the assay plate on ice and washing the cells twice with ice-cold DMEM. Determination of cell associated ^3H-tacrolimus was performed by addition of Insta Gel and scintillation liquid to trypsinized cells followed by analysis on a scintillation counter (Packard TriCarb2000, Can berra Packard S.A.). The results are expressed as: % of control=100×[^3H-tacrolimus conc. with test compound]/[^3H-tacrolimus conc. with vehicle]

[2] = test system: rats treated with tacrolimus; experiment: Renal pathology in rats co-administered with tacrolimus; assay type: in vivo; conditions: tacrolimus 0.5 mg/kg with vehicle or with Compound 2 at 11, 28 and 114 mg/kg, 25 days
Protocol: Tissue is removed from the kidney of rats treated with tacrolimus (Prograf®) at 0.5 mg/kg and inert vehicle, and from rats treated with tacrolimus (Prograf®) at 0.5 mg/kg and quercetin-3′-O-methylphosphonate (Compound 2) at 11 mg/kg, 28 mg/kg, and at 114 mg/kg for 25 days. […] The tissue from rats treated with Compound 2 and tacrolimus show no vacuoles.

[3] = test system: tacrolimus treated Wistar rats; experiment: Tacrolimus induced hyperglycemia in male Wistar rats; assay type: in vivo; conditions: for plasma glucose levels by day-14: tacrolimus 2 mg/kg PO daily, alone or with compound 1 at 30, 10 and 3 mg/kg IP
[4] = test system: BB19 cells, human BCECs (brain capillary endothelial cells); experiment: Cyclosporin uptake assay; assay type: cell-based; conditions: 0.1 μM test compound; 1 hour incubation
Protocol: as §1, §2, §3
The cyclosporin uptake assay was performed similarly as described above for tacrolimus uptake assay except that ^3H-cyclosporin was used in place of ^3H-tacrolimus.

[5] = test system: cyclosporin treated Wistar rats; experiment: Islet histopathology and apoptosis in cyclosporine treated Wistar rats; assay type: in vivo; conditions: cyclosporine 10 mg/kg PO, alone (Group-2) or with compound 1 30 mg/kg IP (Group-3)
[6] = test system: cyclosporin treated Wistar rats; experiment: Cyclosporine induced hyperglycemia in male Wistar rats; assay type: in vivo
[7] = test system: male ZDF rats; experiment: 4-week study in male ZDF rats (compound 1)
[8] = compound 1 30 mg/kg, rosiglitazone 6 mg/kg, compared to vehicle

With O=c1c(O)c(-c2ccccc2)oc2cc(O)cc(OCP(=O)(O)O)c12 [Compound 16, (3,7-Dihydroxy-4-oxo-2-phenyl-4H-chromen-5-yloxy)methylphosphonic acid] the activity at 0.1 µM [1] was 54%.
For C=CC[C@@H]1/C=C(\C)C[C@H](C)C[C@H](OC)[C@H]2O[C@@](O)(C(=O)C(=O)N3CCCC[C@H]3C(=O)O[C@H](/C(C)=C/[C@@H]3CC[C@@H](O)[C@H](OC)C3)[C@H](C)[C@@H](O)CC1=O)[C@H](C)C[C@@H]2OC [Tacrolimus, tacrolimus, reference compound], the “vacuolation of kidney tissue” value [2] was “significant vacuolation” and the “plasma glucose levels by day-14” value [3] was “induced hyperglycemia is clearly demonstrated”.
With O=c1c(O)c(-c2ccc(O)c(OCP(=O)(O)O)c2)oc2ccccc12 [Compound 18, (2-Hydroxy-5-(3-hydroxy-4-oxo-4H-chromen-2-yl)phenoxy)methylphosphonic acid] the “cell associated ^3H-cyclosporin uptake, % of control” value [4] was 77 % of control and the activity at 0.1 µM [1] was 66%.
For O=c1c(O)c(-c2ccc(OCP(=O)(O)O)cc2)oc2cc(O)cc(O)c12 [Compound 11, (4-(3,5,7-Trihydroxy-4-oxo-4H-chromen-2-yl)phenoxy)methylphosphonic acid], the “cell associated ^3H-cyclosporin uptake, % of control” value [4] was 78 % of control and the activity at 0.1 µM [1] was 49%.
For O=c1c(OCP(=O)(O)O)c(-c2ccc(O)c(O)c2)oc2cc(O)cc(O)c12 [Compound 1, Quercetin-3-O-methylphosphonic acid], the “number of apoptotic islet cells” value [5] was “reduced the number of apoptotic cells to that of vehicle treated animals”, the “islet cell hyperplasia and degeneration/necrosis scores” value ([5]; score 0-4) was “normalized the scores to that of vehicle treated animals” and the “plasma glucose level during OGTT” value ([6]; compound 1 30 mg/kg IP with cyclosporine 10 mg/kg PO, day-15) was “a level similar to that of vehicle treated animals”. The “plasma glucose levels by day-14” value ([6]; cyclosporine 10 mg/kg PO daily, alone or with compound 1 at 30, 10 and 3 mg/kg IP) was “reduced cyclosporine induced hyperglycemia”, the “plasma glucose levels by day-14” value ([6]; cyclosporine 10 mg/kg PO with compound 1 at 30 mg/kg IP) was “completely prevented cyclosporine induced hyperglycemia” and the plasma glucose levels ([7]; 4 weeks daily i.p., compound 1 30 and 10 mg/kg) was “maintains a lower plasma glucose level than vehicle treatment”. For the same compound, the “glycated hemoglobin levels (% HbA1c) at termination” value [7, 8] was “significantly lower glycated hemoglobin levels”, the pancreatic insulin levels [7, 8] was “significantly higher than that of the vehicle treated animals” and the “plasma insulin levels, fed and fasting” value ([7]; day-28 and day-29) was “significantly higher plasma insulin levels under both fed and fasting conditions”. The liver triglyceride ([7]; four weeks of daily treatment) was “did not increase liver triglyceride”, the “plasma glucose during OGTT” value ([7]; oral glucose 2 g/kg, day-29 after 12-hr fast, 15, 30, 60, 90 minutes) was “maintain lower plasma glucose level during OGTT” and the “plasma insulin level during OGTT” value ([3]; 0, 15 and 30 minutes post glucose, compound 1 at all three dose levels with tacrolimus 2 mg/kg) was “higher than tacrolimus treated (group-2) or vehicle treated (Group-1) animals”. For the same compound, the “plasma glucose level during OGTT” value ([3]; compound 1 30 mg/kg and 10 mg/kg IP with tacrolimus 2 mg/kg PO, day-15) was “a level similar to that of vehicle treated animals” and the “plasma glucose levels by day-14” value [3] was “reduced tacrolimus induced hyperglycemia”.
In the case of O=c1c(OCP(=O)(O)O)c(-c2ccc(O)c(O)c2)oc2ccccc12 [Compound 20, (2-(3,4-Dihydroxyphenyl)-4-oxo-4H-chromen-3-yloxy)methylphosphonic acid], the “cell associated ^3H-cyclosporin uptake, % of control” value [4] is reported as 77 % of control and the activity at 0.1 µM [1] is reported as 62%.
O=c1c(O)c(-c2ccccc2)oc2cc(OCP(=O)(O)O)cc(O)c12 [Compound 10, (3,5-Dihydroxy-4-oxo-2-phenyl-4H-chromen-7-yloxy)methylphosphonic acid] gave an activity at 0.1 µM [1] of 51%.
